Several values for one entry are separate records, joined by “and”; a condition that tells them apart may be missing. Equal values may be shown once.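 These data come from cells grown in 96-well plates and exposed to compound for 48 hours at five concentrations. At the GI50, growth is halved. TGI marks complete inhibition of growth.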
Legend:
Test in all cases: inhibition of tumour cell growth, NCI panel, 48 h
MCF7 breast = tested on: MCF7 breast
HS 578T breast = tested on: HS 578T breast
OVCAR-4 ovarian = tested on: OVCAR-4 ovarian
PC-3 prostate = tested on: PC-3 prostate
BT-549 breast = tested on: BT-549 breast
T-47D breast = tested on: T-47D breast

| SMILES | GI50 (MCF7 breast) | TGI (MCF7 breast) | GI50 (HS 578T breast) | TGI (HS 578T breast) | GI50 (OVCAR-4 ovarian) | TGI (OVCAR-4 ovarian) | GI50 (PC-3 prostate) | TGI (PC-3 prostate) | GI50 (BT-549 breast) | TGI (BT-549 breast) | GI50 (T-47D breast) | TGI (T-47D breast) |
| --- | --- | --- | --- | --- | --- | --- | --- | --- | --- | --- | --- | --- |
| O=C(CNc1ccc(Cl)cc1)Nc1ccc(-c2nc3ccccc3s2)cc1 | 0.0697 µM | 6.5 µM | 7.87 µM | 47.6 µM | 2.78 µM | 19.4 µM | 1.85 µM | 4.41 µM | 1.83 µM | 4.7 µM | 5.2 µM | 16.6 µM |
| COc1ccc(C(C)=O)cc1N1C(=O)C2C(C1=O)C1(c3ccccc3)C(=O)C2(c2ccccc2)C(c2ccc(C)cc2)=C1c1ccc(C)cc1 (configuration not stated) | > 100 µM | > 100 µM | > 100 µM | > 100 µM | > 100 µM | > 100 µM | > 100 µM | > 100 µM | > 100 µM | > 100 µM | > 100 µM | > 100 µM |
| CCN(CC)CCC(CNc1ccnc2cc(Cl)ccc12)c1ccc(OC)cc1 (configuration not stated) | 4.98 µM and 4.5 µM | 21.1 µM and 17.9 µM | 5.51 µM and 7.53 µM | 23.4 µM and 34.3 µM | 3.7 µM and 4.66 µM | 20.3 µM and 28.1 µM | 19.5 µM and 9.85 µM | 76.3 µM and > 100 µM | 8.14 µM and 8.47 µM | 23.4 µM and 22.6 µM | 2.59 µM and 2.73 µM | 6.66 µM and 7.85 µM |
| C=C1C(=O)OC2CCN3CC=C(COC(=O)C(C)(O)C4(CO4)C1C)C23 (configuration not stated) |  | > 100 µM |  | > 100 µM |  | > 100 µM |  | > 100 µM |  | > 100 µM |  | > 100 µM |
| COc1cc(N(CCC#N)CCC#N)ccc1/C(N=Nc1ccc([N+](=O)[O-])cc1)=N/NC(=O)c1cc(Br)ccc1O | 42.3 µg/mL | > 150 µg/mL | 69.8 µg/mL | > 150 µg/mL | 21.5 µg/mL | 62.4 µg/mL | 37 µg/mL | > 150 µg/mL | 53 µg/mL | > 150 µg/mL | 34.6 µg/mL | 87 µg/mL |
| N#Cc1c(NN)n(C2OC(CO)C(O)C2O)c2ncnc(N)c12 (configuration not stated) | 0.0315 µM | 2.87 µM | 0.0382 µM | 0.429 µM | 0.0538 µM | 3.24 µM | 0.0778 µM |  | 0.271 µM | 2.8 µM | 0.0191 µM | 0.118 µM |
| CCCCCCNC(=O)c1cc(NCc2cc(O)ccc2O)ccc1O | 5.01 µM | 27.7 µM | 15.1 µM | > 100 µM | 5.62 µM | 19.3 µM | 2.47 µM | 12 µM | 1.14 µM | 4.27 µM | 1.92 µM | 5 µM |
| O=C1/C(=C/c2ccc(Br)cc2)COc2ccc(O)c(O)c21 | 0.353 µM | 1.67 µM | 1.54 µM | 6.77 µM | 1.31 µM | 2.59 µM | 0.599 µM | 2.42 µM | 1.2 µM | 3 µM | 0.906 µM | 3.16 µM |
| CCOC(=O)CCCn1c(SC)nc2[nH]cc(-c3ccccc3)c2c1=O | 18.4 µM | 76.6 µM | 23.8 µM | 77.4 µM | 31.4 µM | 80.8 µM | 13.8 µM | 35.8 µM |  |  | 18.2 µM | 61.4 µM |
| COc1cc(C#CC(=O)OC/C=C/c2ccc3c(c2)OCO3)cc(OC)c1OC |  | 64.8 µM |  | 51 µM |  | > 100 µM |  | 72.3 µM |  | 52.3 µM |  | > 100 µM |
| O=C(OC(CNc1cc(=O)n(Cc2ccccc2)c(=O)n1Cc1ccccc1)CN1CCCC1)c1ccccc1 (configuration not stated) | > 100 µM | > 100 µM | > 100 µM | > 100 µM | > 100 µM | > 100 µM | > 100 µM | > 100 µM | 0.781 µM | > 100 µM | 18.9 µM | > 100 µM |
| CCn1c(-c2nonc2N)nc2c(C#CC(C)(C)O)nc(OC[C@H](N)c3ccccc3)cc21 | 2.92 µM | 6.16 µM | 1.8 µM | 7.28 µM | 5.01 µM | 9.61 µM | 3.92 µM | 8.87 µM | 3.39 µM | 6.74 µM | 2.88 µM | 7.53 µM |
| C=CCCCCC/C=C\[C@H](O)C#CC#C/C=C/CO | 38.5 µM | > 100 µM | 45.4 µM | > 100 µM | 90.8 µM | > 100 µM | 18.6 µM | 36.1 µM | 20.1 µM | 54.7 µM | 98.4 µM | > 100 µM |
| CC(C)c1ccc2c(c1)CC[C@@H]1[C@@](C)(C(=O)O)CCC[C@]21C |  |  | 3.08 µM | 9 µM | 4.23 µM | 10.8 µM | 7.62 µM | 82.6 µM | 1.47 µM | 4.59 µM | 2.39 µM | 7.58 µM |
| COc1ccc(-n2cc(-c3cc(OC)c(OC)c(OC)c3)c(C(=O)C(F)(F)F)c2C)cc1 | 14.2 µM | > 100 µM | 53.1 µM | > 100 µM | 9.28 µM | > 100 µM | 9.01 µM | > 100 µM | 56.2 µM | > 100 µM | 3.81 µM | > 100 µM |
| O/N=C/C1C(OCc2ccccc2)C(OCc2ccccc2)C(OCc2ccccc2)CN1Cc1ccccc1 (configuration not stated) | 9.88 µM and 2.9 µM | 40.8 µM and 15.7 µM | 21.5 µM and 3.75 µM | 96.6 µM and 88.5 µM |  | > 100 µM |  |  |  | 37.1 µM |  | > 100 µM |
| CN(C)N=Nc1ccc(NC=O)cc1 |  | > 100 µM |  |  |  | > 100 µM |  | > 100 µM |  | > 100 µM |  | > 100 µM |
| CCCCCCCCCCCCCC1=NC(C)(C)CN1C(C)C | 1.67 µM | 3.13 µM | 1.79 µM | 3.86 µM | 1.76 µM | 3.48 µM | 1.34 µM | 3.03 µM | 2.33 µM | 6 µM | 1.84 µM | 3.8 µM |
| COc1ccc2c(c1)CCCC(Br)C2=O (configuration not stated) |  | 15.1 µM |  | > 94.3 µM |  | 20.5 µM |  | 16.7 µM |  | 7.31 µM |  | > 100 µM |
| C=C(CNCc1ccccc1)c1ccc(C(=O)Nc2ccccc2N)cc1 | 41.1 µM | > 100 µM | 15.2 µM | > 100 µM | 11.7 µM | 68.1 µM | 18.5 µM | > 100 µM | 15.4 µM | > 100 µM | 1.59 µM | > 100 µM |
| CCCCCCCCCCCCOC1C(C(COC2OC(C3COC(C)(C)O3)C3OC(C)(C)OC23)NC(=O)Nc2ccc(C(=O)O)cc2)OC2OC(C)(C)OC21 (configuration not stated) | 2.84 µM | 10.8 µM | 3.46 µM | 13.2 µM | 3.56 µM | 15.3 µM | 2.6 µM | 7.58 µM | 1.79 µM | 4.59 µM | 3.39 µM | 13.5 µM |
